Laboratory results published in US20030044800A1, “Drug discovery employing calorimetric target triage” (priority 2000, published 2003).

Tests used:
[1] = tested on: hexokinase; assay: Calorimetric deconvolution of a cofactor mixture with hexokinase and glucose; format: biochemical; settings: 5 μL of 20 μM hexokinase into 100 μM glucose and cofactors at 1 mM
Procedure: Hexokinase and glucose were present in each test. Various mixtures of cofactors were added to each test. Only when ATP was present in the mixture was a significant amount of heat generated. 5 μL injections of a 20 μM solution of hexokinase were titrated into a solution of 100 μM glucose and one or more “cofactors”, all at 1 mM concentration. In the initial experiment with the entire library of 15 cofactors present, enzymatic turnover was observed (as in FIG. 12a(ii)). We were then able to successfully separate out the cofactors in subsequent experiments to determine which one was actually necessary to allow the hexokinase to turn over the glucose. […] Only tiny heats of dilution are observed when ATP is absent;

[2] = target: E. coli protein YJEQ (Escherichia coli, UniProt P39286); assay: Calorimetric titration of GTP-gamma-S into E. coli protein YJEQ; format: binding; settings: 5 μL injections of 11 mM GTP-gamma-S into 2 mL of 385 μM protein
Procedure: 5 μL injections of an 11 mM GTP-gamma-S solution were titrated into 2 mL of a solution containing 385 μM of an E. coli protein for which no function was previously known.

heat on injection of hexokinase (cofactor needed for turnover of glucose) [1] | Compound | Kd [2] [µM]
large negative heat | Nc1ncnc2c1ncn2[C@@H]1O[C@H](COP(=O)(O)OP(=O)(O)OP(=O)(O)O)[C@@H](O)[C@H]1O [ATP] | –
– | Nc1nc2c(ncn2[C@@H]2O[C@H](COP(=O)(O)OP(=O)(O)OP(O)(O)=S)[C@@H](O)[C@H]2O)c(=O)[nH]1 [GTP-gamma-S] | 115
